Measured values as given in article doi:10.1101/2022.09.03.506457v1 (biorxiv, 2022).

Biological target: T1, MjFH (MjFHαβ), holo, Fe-S reconstituted (Methanocaldococcus jannaschii, UniProt Q58034+Q58690)
T1 sequence (Q58690 1-285): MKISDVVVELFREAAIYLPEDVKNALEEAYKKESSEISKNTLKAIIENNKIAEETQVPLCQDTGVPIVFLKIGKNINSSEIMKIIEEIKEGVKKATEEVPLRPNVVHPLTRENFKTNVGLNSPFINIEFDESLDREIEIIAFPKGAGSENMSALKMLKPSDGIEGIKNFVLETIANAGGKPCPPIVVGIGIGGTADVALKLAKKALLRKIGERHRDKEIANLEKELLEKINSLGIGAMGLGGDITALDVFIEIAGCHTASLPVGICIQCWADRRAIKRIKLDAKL
T1 sequence (Q58034 1-195): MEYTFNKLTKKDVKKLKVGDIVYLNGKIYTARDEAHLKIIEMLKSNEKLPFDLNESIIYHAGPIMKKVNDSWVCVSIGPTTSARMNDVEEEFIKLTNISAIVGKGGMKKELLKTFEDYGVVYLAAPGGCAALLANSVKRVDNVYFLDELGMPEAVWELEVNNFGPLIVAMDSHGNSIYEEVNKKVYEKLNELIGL
Assay type: biochemical
Conditions: pH 7.2, 50 mM Tris-HCl, 70 °C

O=C(O)/C=C/C(=O)O [fumarate]
Km: 2790 ± 397 µM
